Results as given in US10590166B2, “Peptides useable for treating cancer” (Allegro Pharmaceuticals, LLC, priority 2009, dated 2020).

Experiments:
[1] = tested on: human umbilical vein endothelial cells (HUVEC); test: wound-healing assay with HUVEC on fibronectin coated surface; format: cell-based
Experimental: To test the anti-adhesive properties of RGCysteic Acid peptides in vitro, a wound-healing assay was performed with human umbilical vein endothelial cells (HUVEC). HUVEC were seeded and allowed to grow to a confluent monolayer on a fibronectin coated surface. A wound (a scratch rift) was created by dragging a small pipette tip across the HUVEC monolayer. The cells were then incubated in fresh growth medium containing the RGCysteic Acid peptide (Compound 1; 10 mM), and the wound area was imaged in five different fields at various time points (0, 4, 8, 12, 16, 20, 24 hours) to determine the kinetics of wound closure. The level of wound closure was quantified by determining the fraction of the original wound area that was re-occupied by HUVEC through cellular adhesion, migration and proliferation.
In control studies, the following peptides were used in place of RGCysteic Acid (Compound 1): cyclic-RGD peptide (1 mM), positive control) and RGE peptide (1 mM, negative control).
The results are shown as a percentage of the original area. The error bars correspond to the standard deviation in wound size across 2-6 independent trials.

New Zealand Rabbits = test: Ocular toxicity of intravitreal Compound 1 with and without urea (Table A); format: in vivo; settings: single intravitreal injection, 24 hour follow up, 8 eyes per group
rho/VEGF mice = test: Subretinal neovascularization in transgenic rho/VEGF mice expressing human VEGF; format: in vivo; settings: 10 μg, single intraocular injection, seven days post-dose, 3 animals
Experimental: Transgenic mice in which the rhodopsin promoter drives expression of human VEGF in photoreceptors (rho/VEGF mice) were randomized into separate treatment groups and studies were performed to provide the following comparisons:
Pretreatment measurements of the area of subretinal neovascularization were made on each animal using image analysis by a masked observer. Each animal received its designated treatment in a single intraocular injection. Seven days post-dose, measurements of the area of subretinal neovascularization were again made and compared to the pre-dose measurements to determine the change in subretinal neovascularization area. Also, the animals were sacrificed and the retinas were dissected, immunostained with GSA lectin and examined by fluorescence microscopy.

CC(C)[C@H]1C(=O)N[C@@H](CCCN=C(N)N)C(=O)NCC(=O)N[C@@H](CC(=O)O)C(=O)N[C@H](Cc2ccccc2)C(=O)N1C [Cyclic RGD, N-methylated cyclic-RGDf-N(Me)V, reference compound]
inhibition of cell adhesion ([1]; HUVEC wound healing model, in 12 hours): 40% | inhibition of HUVEC wound healing ([1]; after 24 hours, Compound 1 10 mM, control peptides 1 mM): 45%

NC(N)=O [12% Urea solution, Urea, reference compound]
Total PVD (New Zealand Rabbits): 0% Total PVD | Vitreous liquefaction (New Zealand Rabbits): No liquefaction

B1: ranibizumab: recombinant humanized IgG1 kappa isotype monoclonal antibody fragment (antibody, chains of the INN, looked up, V domains shown)
VH: EVQLVESGGGLVQPGGSLRLSCAASGYDFTHYGMNWVRQAPGKGLEWVGWINTYTGEPTYAADFKRRFTFSLDTSKSTAYLQMNSLRAEDTAVYYCAKYPYYYGTSHWYFDVWGQGTLVTVSS
VL: DIQLTQSPSSLSASVGDRVTITCSASQDISNYLNWYQQKPGKAPKVLIYFTSSLHSGVPSRFSGSGSGTDFTLTISSLQPEDFATYYCQQYSTVPWTFGQGTKVEIK
modifications: Fab
notes: recombinant humanized IgG1 kappa isotype monoclonal antibody fragment
greater reduction in subretinal neovascularization area than control animals (Phosphate Buffered Saline) (rho/VEGF mice): 38.96%
